Each block holds one compound with its values, some of them ahead of it.
Assays:
IDO1 = IDO1 (Homo sapiens, UniProt P14902); assay: IDO1 activity assay, N-formylkynurenine absorbance at 321 nm; format: biochemical
Protocol: FIG. 2 is a graph showing the activity of IDO1 (500 nM) (204) with L-tryptophan (200 μM) as substrate glutathione alone (203), and also when activated by 3 MI (500 nM) with glutathione (5 mM) (201), and by 3 MI (500 nM) without glutathione (202).
FIG. 6 reflects a system involving IDO1 (50 nM), 0.1 mM L-tryptophan, and 5 mM glutathione in 100 mM sodium phosphate, pH 7.0 with <1 μM 6-chloro-5-fluoro-1H-indole-3-thiol.
The activity of the compounds was determined as follows. UV-vis spectra were recorded using a Hewlett-Packer 8453 diode array spectrophotometer. Activity assays were done at room temperature using 100 mM sodium phosphate, pH 7.0, with 500 nM IDO1 (ε404nm=172 mM^−1 cm^−1) and 50 μM L-tryptophan. These were initiated by addition of IDO1, and activity was monitored at 321 nm where product N-formylkynurenine absorbs (ε321nm=3750 M^−1 cm^−1).
The substituted indole compound was prepared daily in a 100 mM stock solution in dimethyl sulfoxide (DMSO), and this was serially diluted to maintain a consistent final concentration of 1% (v/v) DMSO in each assay. To maintain activity, 5 mM reduced glutathione was added to some of these from a 0.5 M stock solution. The substituted indole compound was generally tested from 100 nM to 10 μM. The ability of each compound to serve as a reducing substrate for IDO1 was fit using a Michaelis-Menten equation. […] Above 5 μM 3 MI, there was a steep inhibitory effect.

ferric IDO1 = ferric IDO1 (Homo sapiens, UniProt P14902); assay: Stopped-flow UV-vis spectrometry of binding to ferric IDO1
ferric IDO1, sequence (P14902 whole entry): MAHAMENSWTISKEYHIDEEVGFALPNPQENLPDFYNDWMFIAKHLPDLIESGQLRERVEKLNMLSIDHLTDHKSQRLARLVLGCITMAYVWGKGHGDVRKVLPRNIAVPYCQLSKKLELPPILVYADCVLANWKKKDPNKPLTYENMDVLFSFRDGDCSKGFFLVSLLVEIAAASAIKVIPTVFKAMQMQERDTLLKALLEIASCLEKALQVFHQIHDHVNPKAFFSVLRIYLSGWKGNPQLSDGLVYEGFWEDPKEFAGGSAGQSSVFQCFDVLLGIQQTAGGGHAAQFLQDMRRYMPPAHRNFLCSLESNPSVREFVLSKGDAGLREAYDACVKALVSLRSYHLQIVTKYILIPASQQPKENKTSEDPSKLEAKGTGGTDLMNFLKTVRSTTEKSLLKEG
Protocol: FIG. 3 is a graph showing the second-order rate constant of 3 MI binding to ferric IDO1 determined by stopped-flow spectrometry.
FIG. 4 is a graph showing stopped-flow UV-vis spectrometry of 3 MI (30 μM) binding to IDO1 (1.4 μM) over 0.2 s.
3-Mercaptoindole (3 MI) was seen to bind to IDO1 with a fast on-rate of 1.7×10^6 M^−1 s^−1 under pseudo-first-order conditions (See FIG. 3), producing a UV-vis spectrum (see FIG. 4) that has a Soret at 424 nm, a lower peak at 321 nm, and broad q-bands at 537 nm and a shoulder at about 575 nm. […] Note that although 3 MI is referred to here, similar results can be seen with other substituted indole compounds disclosed herein.

ferric-superoxo IDO1 = ferric-superoxo IDO1 (Homo sapiens, UniProt P14902); assay: Double-mixing stopped-flow spectrometry, reaction with ferric-superoxo IDO1; format: biochemical; conditions: 3 MI kept reduced with 5 mM glutathione; estimated, double exponential fit
ferric-superoxo IDO1, sequence (P14902 whole entry): as above
Protocol: The nature of substituted indole compound-inhibition at high concentrations (>5 μM) was examined further with ferric-superoxo IDO1, the active tryptophan-oxidizing species. Ferric-superoxo IDO1 was generated using double-mixing stopped-flow spectrometry by mixing IDO1 prereduced with 2 mM sodium dithionite into aerobic buffer for 0.5 s. This ferric superoxo species was then mixed in the second push with 3 MI that had been maintained in the reduced state using 5 mM glutathione. 3 MI readily reacted with ferric-superoxo IDO1 to form ferric IDO1 without any observable intermediates. This was shown by a fast shift from the ferric-superoxo complex (Amax 415 nm) to the ferric (Amax 404 nm) that was completed nearly within the mixing time of the instrument (<10 ms) even at the lowest concentration of 3 MI useful for pseudo-first-order reaction conditions (where 3 MI must be at a large excess over IDO1). Following this fast conversion to ferric IDO1, there was a slower shift to the ferric 3 MI-bound complex as indicated by the Soret shifting to 424 nm (as in FIG. 4). To account for both reactions, these traces were fit using a double exponential expression.

myoglobin = molecular target: T1, myoglobin (Homo sapiens, UniProt P02144); assay: Heme protein selectivity by stopped-flow UV-vis spectrometry, myoglobin; format: biochemical; conditions: pseudo-first-order conditions
T1 sequence (P02144 1-154): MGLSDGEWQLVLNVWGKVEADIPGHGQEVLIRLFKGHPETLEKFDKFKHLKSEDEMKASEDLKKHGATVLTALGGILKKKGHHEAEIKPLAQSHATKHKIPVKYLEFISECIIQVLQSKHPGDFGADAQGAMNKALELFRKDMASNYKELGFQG
Protocol: (§1) Since hydrogen sulfide and polysulfides are known to react with other heme proteins, the selectivity of 3 MI for IDO1 was examined by mixing the substituted indole compounds (such as 3 MI) with several other heme proteins and observing their reactions using stopped-flow UV-vis spectrometry.
(§2) The substituted indole compounds had no effect on catalase even at 250 µM, whereas the substituted indole compounds did appear to reduce myoglobin and hemoglobin, producing their oxygen-bound forms. The substituted indole compound was also able to reduce ferric cytochrome c to its distinctive ferrous form. The second-order rate constants of these reactions were determined under pseudo-first-order conditions giving 6.6×10^3, 1.6×10^4, and 2.7×10^5 M^−1 s^−1 for myoglobin, hemoglobin, and cytochrome c, respectively. […] Unlike myoglobin and hemoglobin, the oxy-form of IDO1 was not observed due to the relatively slow reduction of IDO1 by 3 MI.

hemoglobin = hemoglobin (Homo sapiens, UniProt P68871+P69905); assay: Heme protein selectivity by stopped-flow UV-vis spectrometry, hemoglobin; format: biochemical; conditions: pseudo-first-order conditions
hemoglobin, sequence (P69905 2-142 limits assumed): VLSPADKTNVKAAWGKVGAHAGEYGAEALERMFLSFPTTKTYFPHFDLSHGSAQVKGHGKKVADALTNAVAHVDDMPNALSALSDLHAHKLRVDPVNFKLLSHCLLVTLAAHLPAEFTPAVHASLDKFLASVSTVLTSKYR
hemoglobin, sequence (P68871 2-147 limits assumed): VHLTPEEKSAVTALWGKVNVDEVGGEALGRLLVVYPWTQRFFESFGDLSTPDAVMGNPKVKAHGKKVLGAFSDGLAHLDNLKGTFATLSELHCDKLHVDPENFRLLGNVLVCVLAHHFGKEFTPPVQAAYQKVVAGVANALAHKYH
Protocol: as §1, §2

ferric cytochrome c = ferric cytochrome c (Homo sapiens, UniProt P99999); assay: Heme protein selectivity by stopped-flow UV-vis spectrometry, cytochrome c; format: biochemical; conditions: pseudo-first-order conditions
ferric cytochrome c, sequence (P99999 whole entry): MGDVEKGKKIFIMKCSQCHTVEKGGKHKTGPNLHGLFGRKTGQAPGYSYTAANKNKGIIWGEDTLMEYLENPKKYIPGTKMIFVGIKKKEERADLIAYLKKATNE
Protocol: as §1, §2

IDO1, sequence (P14902 whole entry): as the sequence (P14902 whole entry) above

concentration above which there was a steep inhibitory effect (IDO1): Above 5 μM
Km (IDO1; 500 nM IDO1, 50 μM L-tryptophan, 100 mM sodium phosphate pH 7.0, room temperature, Michaelis-Menten fit, read-out: Km of activation): 2.2 ± 0.7 µM
IDO1 activity with reduced glutathione added (IDO1; 5 mM reduced glutathione (FIG. 2, 201)): sustained 3 MI-induced IDO1 activity
time after which the initial burst of IDO1 activity leveled off (IDO1; 3 MI without glutathione (FIG. 2, 202)): 500 s
Kd of binding to IDO1 (ferric IDO1; complete conversion to bound IDO1 at micromolar concentrations of 3 MI): submicromolar
second-order rate constant of initial reaction with ferric-superoxo IDO1 (ferric-superoxo IDO1): > 10^7 M^−1 s^−1
second-order rate constant of reduction of myoglobin (myoglobin): 6600 M⁻¹ s⁻¹
second-order rate constant of reduction of hemoglobin (hemoglobin): 16000 M⁻¹ s⁻¹
second-order rate constant of reduction of cytochrome c (ferric cytochrome c): 270000 M⁻¹ s⁻¹
Structure (SMILES): Sc1c[nH]c2ccccc12 [3 MI, 3-Mercaptoindole]

IDO1 activity, N-formylkynurenine absorbance at 321 nm over time (FIG. 6) (IDO1; IDO1 50 nM, 0.1 mM L-tryptophan, 5 mM glutathione, 100 mM sodium phosphate pH 7.0, <1 μM compound, background subtracted): increase in absorbance
Structure (SMILES): Fc1cc2c(S)c[nH]c2cc1Cl [6-chloro-5-fluoro-1H-indole-3-thiol]

on-rate (second-order rate constant) of binding to IDO1 (ferric IDO1; pseudo-first-order conditions, stopped-flow): 1.7e+06 M⁻¹ s⁻¹
Structure (SMILES): Sc1c[nH]c2ccccc12 [3-Mercaptoindole (3 MI)]

Reference: patent US20260152691A1, “METHOD AND COMPOUNDS FOR TREATING OR PREVENTING AUTOIMMUNE DISORDERS OR IMMUNE RESPONSES MODULATED BY THE EXPRESSION OF IDO1” (The Trustees of Princeton University, priority 2019, published 2026)
